Type in all cases: biochemical
In one experiment the target is T1, recombinant human DPP7 (Homo sapiens, UniProt Q9UHL4).
T1 construct: purchased R&D Systems
Nature of the experiment: DPP7 inhibition, fluorogenic substrate Lys-Pro-AMC. The note with it: recombinant human DPP7. A digest of the protocol: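 Enzyme per reaction: 50 ng DPP9, 20 ng DPP8, 10 ng each DPP7 and PREP. Compounds were serially diluted (8 points, up to 0.5% DMSO) and incubated at 25 °C.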

The target in another experiment is DPP4 (Homo sapiens, UniProt P27487). Nature of the experiment: DPP4 inhibition, fluorogenic substrate H-Gly-Pro-AMC. The note with it: recombinant human DPP4. Also on record: purchased R&D Systems.
For another experiment, the target named is T2, recombinant human PREP (Homo sapiens, UniProt P48147).
T2 construct: purchased R&D System
T2 sequence (P48147 1-710): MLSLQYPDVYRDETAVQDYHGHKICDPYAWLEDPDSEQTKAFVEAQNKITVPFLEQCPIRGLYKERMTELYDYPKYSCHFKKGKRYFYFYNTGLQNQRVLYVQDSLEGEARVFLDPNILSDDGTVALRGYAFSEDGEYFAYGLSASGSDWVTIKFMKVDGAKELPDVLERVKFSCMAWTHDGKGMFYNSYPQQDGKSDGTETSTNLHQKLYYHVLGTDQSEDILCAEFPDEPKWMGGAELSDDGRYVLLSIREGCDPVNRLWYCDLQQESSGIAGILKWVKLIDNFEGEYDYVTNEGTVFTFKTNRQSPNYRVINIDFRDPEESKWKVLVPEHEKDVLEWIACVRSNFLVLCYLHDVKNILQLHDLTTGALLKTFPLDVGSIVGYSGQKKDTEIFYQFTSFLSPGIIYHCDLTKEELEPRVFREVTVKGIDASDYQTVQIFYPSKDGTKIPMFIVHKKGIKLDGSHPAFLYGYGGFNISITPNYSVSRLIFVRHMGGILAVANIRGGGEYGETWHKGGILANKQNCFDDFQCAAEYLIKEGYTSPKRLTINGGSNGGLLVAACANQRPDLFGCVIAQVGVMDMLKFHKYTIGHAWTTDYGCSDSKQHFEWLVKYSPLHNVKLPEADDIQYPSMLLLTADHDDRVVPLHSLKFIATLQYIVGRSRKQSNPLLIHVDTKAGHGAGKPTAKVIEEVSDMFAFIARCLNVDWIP
Briefly: PREP inhibition, fluorogenic substrate Z-Gly-Pro-AMC. The note with it: Inhibitory Activity (IC50, nM) PREP, recombinant human PREP. On the procedure: (§1) The compounds according to the present technology were evaluated in terms of the inhibitory effect on the activity of dipeptidyl peptidases including FAP by using a substrate producing fluorescent substances upon enzymatic decomposition. The test was conducted at 25° C. to get a final reaction volume of 100 μL in a 96 black well plate. […] Briefly, the test compounds were dissolved in dimethyl sulfoxide (DMSO) at a concentration of 20 mM and then subjected to serial dilution, thereby creating an 8 point curve. As for the control group, a 6 point curve created by serial dilution of Talabostat in the same buffer solution was used. Fluorescence intensity was measured using a microplate reader (Flexstation3, Molecular Devices) under the wavelength condition exciting at 380 nm and reading the emission at 460 nm. The inhibitory effect of the test compounds was measured as a decrease (%) in the signal rate as compared to the control group without any inhibitor. Data was fixed to a logistic model with four variables and IC50 value was calculated using GraphPad Prism program. As for recombinant human DPP4 (R&D Systems), 25 mM tris (pH 8.0) buffer as a buffer solution and H-Gly-Pro-AMC (Bachem) as a substrate were used. As for recombinant human DPP7 (R&D Systems), 25 mM MES (pH 6.0) buffer as a buffer solution and Lys-Pro-AMC (Bachem) as a substrate were used. As for recombinant human DPP8 (PBS Bioscience), as a buffer solution, a 10 mM tris (pH 7.4) buffer comprising 10 mM of magnesium chloride and 0.05% of Tween 20, and Z-Ala-Pro-AMC (BPS Bioscience) as a substrate were used. As for recombinant human DPP9 (R&D Systems), a 25 mM tris (pH 8.0) buffer as a buffer solution and H-Gly-Pro-AMC (Bachem) as a substrate were used. As for recombinant human PREP (R&D System), as a buffer solution, a 25 mM tris (pH 7.5) buffer comprising 250 mM sodium chloride and 2.5 mM DTT (Dithiolthreitol), and Z-Gly-Pro-AMC (Bachem) as a substrate were used. The evaluation was made by using 10 ng of DPP4, PDD7, and PREP, 20 ng of DPP8, and 50 ng of DPP9 based on the final reaction. In the evaluation of DPP4, the test compounds were subjected to serial dilution in a buffer under the condition containing up to 0.1% of DMSO. In the evaluation of DPP7, DPP8, DPP9, and PREP, the test compounds were subjected to serial dilution in each buffer under the condition containing up to 0.5% of DMSO.

The next experiment deals with T3, recombinant human DPP9 (Homo sapiens, UniProt Q86TI2).
T3 construct: purchased R&D Systems
Briefly: DPP9 inhibition, fluorogenic substrate H-Gly-Pro-AMC. The settings on record: recombinant human DPP9. On the procedure: as §1

A further experiment concerns the target T4, Recombinant human FAP (Homo sapiens, UniProt Q12884).
T4 construct: purchased R&D systems
T4 sequence (Q12884 1-760): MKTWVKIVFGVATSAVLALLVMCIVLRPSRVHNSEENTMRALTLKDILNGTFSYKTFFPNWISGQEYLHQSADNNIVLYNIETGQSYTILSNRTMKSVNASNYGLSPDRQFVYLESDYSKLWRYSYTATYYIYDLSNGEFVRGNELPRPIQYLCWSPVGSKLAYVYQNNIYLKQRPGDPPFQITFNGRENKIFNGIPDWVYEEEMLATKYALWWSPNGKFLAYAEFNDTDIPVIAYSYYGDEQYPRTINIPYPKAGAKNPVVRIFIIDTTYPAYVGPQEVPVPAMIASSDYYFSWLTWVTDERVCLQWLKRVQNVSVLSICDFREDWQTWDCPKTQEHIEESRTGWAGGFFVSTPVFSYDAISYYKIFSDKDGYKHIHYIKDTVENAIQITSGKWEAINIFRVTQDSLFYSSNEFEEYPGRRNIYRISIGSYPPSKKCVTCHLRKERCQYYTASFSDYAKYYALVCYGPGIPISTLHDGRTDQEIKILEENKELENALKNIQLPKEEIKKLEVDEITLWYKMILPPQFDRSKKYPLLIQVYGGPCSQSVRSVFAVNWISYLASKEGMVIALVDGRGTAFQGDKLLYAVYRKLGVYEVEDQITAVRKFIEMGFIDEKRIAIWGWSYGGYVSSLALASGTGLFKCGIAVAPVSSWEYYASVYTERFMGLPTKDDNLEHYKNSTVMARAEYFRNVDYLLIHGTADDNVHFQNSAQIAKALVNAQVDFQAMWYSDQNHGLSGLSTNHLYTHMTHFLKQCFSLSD
Nature of the experiment: FAP FRET assay, FGF21-sequence FRET peptide substrate. The settings on record: FRET peptide with human FGF21 sequence, 6 μM, 37° C. In outline:
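Recombinant human FAP, 10 ng per reaction, in 50 mM HEPES pH 7.2 with 150 mM NaCl, 0.1 mg/ml BSA, 1 mM EDTA; HyLite Fluor 488/QXL 520 FRET peptide of human FGF21 sequence at 6 μM final, ≤0.1% DMSO, 37° C. IC50 from 8-point curves by four-parameter logistic fit.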

For orientation: IC50 means the concentration needed to halve the response being measured.

Sequence of DPP4 (P27487 whole entry): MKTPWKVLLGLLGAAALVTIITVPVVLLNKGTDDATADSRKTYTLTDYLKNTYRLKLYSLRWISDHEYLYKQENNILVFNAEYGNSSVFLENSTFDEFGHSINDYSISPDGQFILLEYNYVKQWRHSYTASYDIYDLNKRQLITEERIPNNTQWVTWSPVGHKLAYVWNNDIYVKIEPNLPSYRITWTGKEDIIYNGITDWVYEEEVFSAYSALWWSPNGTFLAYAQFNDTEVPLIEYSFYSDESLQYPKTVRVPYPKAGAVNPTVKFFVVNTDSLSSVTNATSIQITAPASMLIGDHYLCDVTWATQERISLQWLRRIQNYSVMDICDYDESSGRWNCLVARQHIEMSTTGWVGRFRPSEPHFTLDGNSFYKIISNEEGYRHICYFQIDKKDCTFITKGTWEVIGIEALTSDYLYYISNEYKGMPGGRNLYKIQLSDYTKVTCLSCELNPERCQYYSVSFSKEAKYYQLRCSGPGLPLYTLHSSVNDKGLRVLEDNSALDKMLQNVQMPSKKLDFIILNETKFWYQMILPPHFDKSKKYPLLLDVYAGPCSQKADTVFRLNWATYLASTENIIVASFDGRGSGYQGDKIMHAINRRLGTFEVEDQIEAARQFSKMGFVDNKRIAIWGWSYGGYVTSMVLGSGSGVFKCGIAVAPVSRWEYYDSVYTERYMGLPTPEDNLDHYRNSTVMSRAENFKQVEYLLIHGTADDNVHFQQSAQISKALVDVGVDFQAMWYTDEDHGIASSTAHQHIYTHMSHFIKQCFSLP
T3 sequence (Q86TI2 whole entry): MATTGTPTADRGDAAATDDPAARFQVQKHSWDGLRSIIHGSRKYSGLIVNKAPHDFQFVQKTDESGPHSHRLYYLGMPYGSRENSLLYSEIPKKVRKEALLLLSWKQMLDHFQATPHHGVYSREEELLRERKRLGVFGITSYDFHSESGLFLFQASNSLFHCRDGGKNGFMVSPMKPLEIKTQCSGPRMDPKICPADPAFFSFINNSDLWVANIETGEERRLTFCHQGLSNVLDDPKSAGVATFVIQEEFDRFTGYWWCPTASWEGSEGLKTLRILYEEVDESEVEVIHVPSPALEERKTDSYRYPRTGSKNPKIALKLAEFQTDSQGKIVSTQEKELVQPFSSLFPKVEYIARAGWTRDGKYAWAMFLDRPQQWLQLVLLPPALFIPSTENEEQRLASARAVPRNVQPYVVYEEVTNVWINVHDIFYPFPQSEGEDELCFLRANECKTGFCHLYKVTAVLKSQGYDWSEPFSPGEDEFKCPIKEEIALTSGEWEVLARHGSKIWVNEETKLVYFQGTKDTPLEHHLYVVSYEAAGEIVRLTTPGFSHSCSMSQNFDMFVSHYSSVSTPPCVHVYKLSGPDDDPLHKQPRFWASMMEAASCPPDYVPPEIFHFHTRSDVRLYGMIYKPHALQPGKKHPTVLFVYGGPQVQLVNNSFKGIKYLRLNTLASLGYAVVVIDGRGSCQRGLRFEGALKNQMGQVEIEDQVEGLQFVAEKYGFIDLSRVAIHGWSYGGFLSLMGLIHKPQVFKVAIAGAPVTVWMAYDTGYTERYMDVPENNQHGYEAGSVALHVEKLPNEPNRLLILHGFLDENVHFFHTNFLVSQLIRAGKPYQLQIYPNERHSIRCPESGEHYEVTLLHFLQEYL

With `CC(=O)Nc1ccc(NC2CCN(CC(=O)N3C[C@@H](F)C[C@H]3C#N)CC2)c2cccnc12` [Example 409, N-[5-[[1-[2-oxo-2-[(2S,4S)-2-cyano-4-fluoro-pyrrolidin-1-yl]ethyl]-4-piperidyl]amino]-8-quinolyl]acetamide], the IC50 at recombinant human DPP7 was 0.0626 µM; at DPP4, 1.32 µM; on recombinant human PREP it was 1630 nM; on recombinant human DPP9, 1.86 µM; on Recombinant human FAP, 0.0075 µM.
As to `COc1ccc2nccc(OC3CCN(CC(=O)N4CCC[C@H]4C#N)CC3)c2c1` [Example 426, (2S)-1-[2-[4-[(6-methoxy-4-quinolyl)oxy]-1-piperidyl]acetyl]pyrrolidine-2-carbonitrile], the IC50 on recombinant human DPP7 was 9.4 µM; at DPP4, 54.8 µM; on recombinant human PREP it was 10800 nM; on recombinant human DPP9 it was at least 100 µM; at Recombinant human FAP, 0.0039 µM.
Take `Cc1ccc2ncccc2c1N[C@@H]1CCN(CC(=O)N2C[C@@H](F)C[C@H]2C#N)C1` [Example 180, (2S,4S)-4-fluoro-1-[2-[(3R)-3-[(6-methyl-5-quinolyl)amino]pyrrolidin-1-yl]acetyl]pyrrolidine-2-carbonitrile]: the IC50 at recombinant human DPP7 worked out at 6.79 µM; on DPP4, 1.02 µM; at recombinant human PREP, 1560 nM; on recombinant human DPP9, 3.18 µM; on Recombinant human FAP it was 0.0062 µM.
`N#C[C@@H]1C[C@H](F)CN1C(=O)CN1CCC(Oc2cccc3ncccc23)CC1` [Example 425, (2S,4S)-4-fluoro-1-[2-[4-(5-quinolyloxy)-1-piperidyl]acetyl]pyrrolidine-2-carbonitrile]: the IC50 at recombinant human DPP7 was found to be 2.15 µM; on DPP4, 7.24 µM; on recombinant human PREP, 1330 nM; at recombinant human DPP9, 33.8 µM; on Recombinant human FAP, 0.007 µM.
With `N#C[C@@H]1C[C@H](F)CN1C(=O)CN1CC[C@@H](Nc2cccc3ncc(Cl)cc23)C1` [Example 185, (2S,4S)-4-fluoro-1-[2-[(3R)-3-[(3-chloro-5-quinolyl)amino]pyrrolidin-1-yl]acetyl]pyrrolidine-2-carbonitrile], the IC50 at recombinant human DPP7 turned out to be 1.3 µM; at DPP4 it was 0.995 µM; at recombinant human PREP, 3550 nM; at recombinant human DPP9, 2.75 µM; at Recombinant human FAP, 0.0021 µM.
For the molecule `CCOc1ccc(N[C@H]2CCN(CC(=O)N3C[C@@H](F)C[C@H]3C#N)C2)c2cccnc12` [Example 275, (2S,4S)-4-fluoro-1-[2-[(3S)-3-[(8-ethoxy-5-quinolyl)amino]pyrrolidin-1-yl]acetyl]pyrrolidine-2-carbonitrile], the IC50 on recombinant human DPP7 was 0.0904 µM; on DPP4, 1.43 µM; at recombinant human PREP it was 6120 nM; on recombinant human DPP9, 1.59 µM; on Recombinant human FAP, 0.0017 µM.
In the case of `CCN(c1ccc2ncccc2c1)C1CCN(CC(=O)N2C[C@@H](F)C[C@H]2C#N)CC1` [Example 306, (2S,4S)-1-[2-[4-[ethyl(6-quinolyl)amino]-1-piperidyl]acetyl]-4-fluoro-pyrrolidine-2-carbonitrile], the IC50 on recombinant human DPP7 was determined as 0.477 µM; on DPP4, 24.3 µM; at recombinant human PREP, 129 nM; at recombinant human DPP9, 13.2 µM; on Recombinant human FAP it was 0.0044 µM.
For `CCOc1ccc(NC2CCN(CC(=O)N3C[C@@H](F)C[C@H]3C#N)CC2)c2cccnc12` [Example 371, (2S,4S)-1-[2-[4-[(8-ethoxy-5-quinolyl)amino]-1-piperidyl]acetyl]-4-fluoro-pyrrolidine-2-carbonitrile], in that order: 0.307 µM, 4.57 µM, 4910 nM, 5.2 µM and 0.007 µM.
For `N#C[C@@H]1CCCN1C(=O)CN1CC[C@H](Nc2ccc(C(=O)Nc3ccncc3)c3ncccc23)C1` [Example 291, N-(4-pyridyl)-5-[[(3S)-1-[2-oxo-2-[(2S)-2-cyanopyrrolidin-1-yl]ethyl]pyrrolidin-3-yl]amino]quinoline-8-carboxamide], in that order: 0.173 µM, 12.9 µM, 2110 nM, 2.84 µM and 0.0044 µM.
For the molecule `N#Cc1ccc(N[C@H]2CCN(CC(=O)N3C[C@@H](F)C[C@H]3C#N)C2)c2cccnc12` [Example 267, 5-[[(3S)-1-[2-oxo-2-[(2S,4S)-2-cyano-4-fluoro-pyrrolidin-1-yl]ethyl]pyrrolidin-3-yl]amino]quinoline-8-carbonitrile], the IC50 came out at 3.16 µM at recombinant human DPP7, 2.57 µM on DPP4, 835 nM at recombinant human PREP and 0.0015 µM on Recombinant human FAP.
`N#C[C@@H]1C[C@H](F)CN1C(=O)CN1CCC(Nc2cc(C(F)(F)F)c3ncccc3c2)CC1` [Example 377, (2S,4S)-4-fluoro-1-[2-[4-[[8-(trifluoromethyl)-6-quinolyl]amino]-1-piperidyl]acetyl]pyrrolidine-2-carbonitrile]: the IC50 came out at 0.178 µM at recombinant human DPP7, 6.61 µM on DPP4, 1400 nM on recombinant human PREP and 0.0124 µM on Recombinant human FAP.
On to `N#C[C@@H]1CCCN1C(=O)CN1CC[C@@H](Nc2ccc(C(F)(F)F)c3ncccc23)C1` [Example 201, (2S)-1-[2-[(3R)-3-[[8-(trifluoromethyl)-5-quinolyl]amino]pyrrolidin-1-yl]acetyl]pyrrolidine-2-carbonitrile], for which the concentration for half-maximal inhibition (IC50) at recombinant human DPP7 was 3.91 µM; on DPP4, 26.3 µM; on recombinant human PREP it was 9150 nM; at Recombinant human FAP, 0.0013 µM.
